# Experimental data taken from ChEMBL document CHEMBL1148863, “Discovering new inhibitors of bacterial glucosamine-6P synthase (GlmS) by docking simulations” (Bioorg Med Chem Lett, 2007).
# Tests used:
# [1] = Inhibition of bacterial glucosamine-6-phosphate synthase by colorimetric morgan-elson assay
# [2] = Inhibition of bacterial glucosamine-6-phosphate synthase at 100 uM by colorimetric morgan-elson assay
SMILES,IC50 [1],inhibition [2]
N[C@@H](CO)[C@@H](O)[C@H](O)[C@H](O)COP(=O)(O)O,56 µM,85%
COc1cc2ccnc3c2c(c1OC)NC=C3 [AAPTAMINE],120 µM,
O=C(O)Cc1csc(NC(=O)CSc2ccccn2)n1,,0%
O=C(O)C[C@@H](NS(=O)(=O)c1ccccc1)C(=O)O,,0%
COc1ccc(-c2sc(C(=O)O)cc2CC(=O)O)cc1,,0%
O=C(O)CC(Sc1ccc(C(=O)O)cc1)C(=O)O (stereo not drawn),,0%
Nc1nc[nH]n1 [AMITROLE],100 µM,

# The remaining lines, values ahead:
IC50 [1],inhibition [2],SMILES
,20%,O=C(C1=C(O)C(=O)N(Cc2cccnc2)C1c1cccc(Oc2ccccc2)c1)c1ccco1 (stereo not drawn)
70 µM,70%,CCOC(=O)c1sc(N2C(=O)C(O)=C(C(=O)c3ccc(F)cc3)C2c2cccc(Br)c2)nc1C (stereo not drawn)
70 µM,70%,COc1ccccc1C1Oc2ccccc2C2=C1C(c1ccccc1OC)n1nc(C)nc1N2 (stereo not drawn)
,0%,COC(=O)c1sc(N2C(=O)C(O)=C(C(=O)c3ccccc3)C2c2ccc(C)cc2)nc1C (stereo not drawn)
70 µM,70%,CCOC(=O)c1sc(N2C(=O)C(O)=C(C(=O)c3ccc(F)cc3)C2c2ccc(OC)cc2)nc1C (stereo not drawn)
,0%,O=S(=O)(NC(NS(=O)(=O)c1ccccc1)c1ccc(Br)cc1)c1ccccc1
,0%,COC(=O)c1sc(N2C(=O)C(O)=C(C(=O)c3ccc(Cl)cc3)C2c2ccccc2F)nc1C (stereo not drawn)
